Tests used:
Assay in all cases: increase in dead-cell fraction, 72 h; higher = more death;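 further: breast cancer cell lines in 384-well plates, stained with Hoechst plus LIVE/DEAD far red dye and imaged, cells above an LDR intensity threshold counted dead, Hoechst-negative corpses included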
[1] = compound: CO[C@@H](C)Cn1c(=O)n(C)c2cnc3ccc(-c4cncc(C(C)(C)O)c4)cc3c21
AZD5363 = compound: NC1(C(=O)N[C@@H](CCO)c2ccc(Cl)cc2)CCN(c2nc[nH]c3nccc2-3)CC1 [AZD5363]
Saracatinib/AZD0530 = compound: CN1CCN(CCOc2cc(OC3CCOCC3)c3c(Nc4c(Cl)ccc5c4OCO5)ncnc3c2)CC1 [Saracatinib/AZD0530]
Tivantinib/ARQ197 = compound: O=C1NC(=O)[C@@H](c2cn3c4c(cccc24)CCC3)[C@@H]1c1c[nH]c2ccccc12 [Tivantinib/ARQ197]
Volasertib/BI6727 = compound: CC[C@@H]1C(=O)N(C)c2cnc(Nc3ccc(C(=O)N[C@H]4CC[C@H](N5CCN(CC6CC6)CC5)CC4)cc3OC)nc2N1C(C)C [Volasertib/BI6727]
FMF-03-146-1 = compound: CN1CCN(CC1)C2=CC(=C(C=C2)NC3=NC=C4C(=N3)N(C5=CC=CC=C5C(=O)N4CC(F)(F)F)C)OC [FMF-03-146-1]
FMF-03-145-1 = compound: CCC(=O)Nc1ccc(C(=O)Nc2ccc(Nc3ncc4c(n3)N(C)c3ccc(C)cc3C(=O)N4C)cc2)cc1 [FMF-03-145-1]
[2] = compound: CC(=O)Nc1cccc(-n2c(=O)n(C3CC3)c(=O)c3c(Nc4ccc(I)cc4F)n(C)c(=O)c(C)c32)c1
Dasatinib = compound: Cc1nc(Nc2ncc(C(=O)Nc3c(C)cccc3Cl)s2)cc(N2CCN(CCO)CC2)n1 [Dasatinib]
AZD1775 = compound: C=CCn1c(=O)c2cnc(Nc3ccc(N4CCN(C)CC4)cc3)nc2n1-c1cccc(C(C)(C)O)n1 [AZD1775]
THZ-P1-2 = compound: CN(C)C/C=C/C(=O)NC1=CC=C(C=C1)C(=O)NC2=CC=CC(=C2)NC3=NC=NC(=C3)C4=CNC5=CC=CC=C54 [THZ-P1-2]
Buparlisib/NVP-BKM120 = compound: Nc1cc(C(F)(F)F)c(-c2cc(N3CCOCC3)nc(N3CCOCC3)n2)cn1 [Buparlisib/NVP-BKM120]

AU565
increase in dead-cell fraction ([1]; 0.001 µM): 0.0299
increase in dead-cell fraction ([1]; 0.003162 µM): 0.0425
increase in dead-cell fraction ([1]; 0.01 µM): 0.0372
increase in dead-cell fraction ([1]; 0.03162 µM): 0.0503
increase in dead-cell fraction ([1]; 0.1 µM): 0.0586
increase in dead-cell fraction ([1]; 0.3162 µM): 0.0998
increase in dead-cell fraction ([1]; 1 µM): 0.074
increase in dead-cell fraction ([1]; 3.162 µM): 0.091
increase in dead-cell fraction ([1]; 10 µM): 0.511
increase in dead-cell fraction (AZD5363; 0.001 µM): -0.0047
increase in dead-cell fraction (AZD5363; 0.003162 µM): 0.0058
increase in dead-cell fraction (AZD5363; 0.01 µM): 0.0054
increase in dead-cell fraction (AZD5363; 0.03162 µM): 0.0087
increase in dead-cell fraction (AZD5363; 0.1 µM): 0.0196
increase in dead-cell fraction (AZD5363; 0.3162 µM): -0.0036
increase in dead-cell fraction (AZD5363; 1 µM): 0.0183
increase in dead-cell fraction (AZD5363; 3.162 µM): 0.0124
increase in dead-cell fraction (AZD5363; 10 µM): 0.0512
increase in dead-cell fraction (Saracatinib/AZD0530; 0.001 µM): -0.003
increase in dead-cell fraction (Saracatinib/AZD0530; 0.003162 µM): 0.0003
increase in dead-cell fraction (Saracatinib/AZD0530; 0.01 µM): 0.0038
increase in dead-cell fraction (Saracatinib/AZD0530; 0.03162 µM): -0.0046
increase in dead-cell fraction (Saracatinib/AZD0530; 0.1 µM): -0.0038
increase in dead-cell fraction (Saracatinib/AZD0530; 0.3162 µM): -0.0029
increase in dead-cell fraction (Saracatinib/AZD0530; 1 µM): 0.0012
increase in dead-cell fraction (Saracatinib/AZD0530; 3.162 µM): 0.0017
increase in dead-cell fraction (Saracatinib/AZD0530; 10 µM): 0.0305
increase in dead-cell fraction (Tivantinib/ARQ197; 0.001 µM): -0.0007
increase in dead-cell fraction (Tivantinib/ARQ197; 0.003162 µM): -0.0033
increase in dead-cell fraction (Tivantinib/ARQ197; 0.01 µM): -0.0012
increase in dead-cell fraction (Tivantinib/ARQ197; 0.03162 µM): -0.0029
increase in dead-cell fraction (Tivantinib/ARQ197; 0.1 µM): 0.0087
increase in dead-cell fraction (Tivantinib/ARQ197; 0.3162 µM): 0.0601
increase in dead-cell fraction (Tivantinib/ARQ197; 1 µM): 0.263
increase in dead-cell fraction (Tivantinib/ARQ197; 3.162 µM): 0.306
increase in dead-cell fraction (Tivantinib/ARQ197; 10 µM): 0.3
increase in dead-cell fraction (Volasertib/BI6727; 0.0001 µM): -0.0025
increase in dead-cell fraction (Volasertib/BI6727; 0.0003162 µM): 0.0017
increase in dead-cell fraction (Volasertib/BI6727; 0.001 µM): -0.0005
increase in dead-cell fraction (Volasertib/BI6727; 0.003162 µM): 0.0085
increase in dead-cell fraction (Volasertib/BI6727; 0.01 µM): 0.284
increase in dead-cell fraction (Volasertib/BI6727; 0.03162 µM): 0.353
increase in dead-cell fraction (Volasertib/BI6727; 0.1 µM): 0.412
increase in dead-cell fraction (Volasertib/BI6727; 0.3162 µM): 0.353
increase in dead-cell fraction (Volasertib/BI6727; 1 µM): 0.152
increase in dead-cell fraction (FMF-03-146-1; 0.001 µM): -0.0004
increase in dead-cell fraction (FMF-03-146-1; 0.003162 µM): -0.0059
increase in dead-cell fraction (FMF-03-146-1; 0.01 µM): -0.0077
increase in dead-cell fraction (FMF-03-146-1; 0.03162 µM): -0.0019
increase in dead-cell fraction (FMF-03-146-1; 0.1 µM): -0.007
increase in dead-cell fraction (FMF-03-146-1; 0.3162 µM): 0.0094
increase in dead-cell fraction (FMF-03-146-1; 1 µM): 0.0124
increase in dead-cell fraction (FMF-03-146-1; 3.162 µM): -0.0094
increase in dead-cell fraction (FMF-03-146-1; 10 µM): 0.0136
increase in dead-cell fraction (FMF-03-145-1; 0.0001 µM): 0.0006
increase in dead-cell fraction (FMF-03-145-1; 0.0003162 µM): 0.0131
increase in dead-cell fraction (FMF-03-145-1; 0.001 µM): 0.0011
increase in dead-cell fraction (FMF-03-145-1; 0.003162 µM): 0.0053
increase in dead-cell fraction (FMF-03-145-1; 0.01 µM): 0.231
increase in dead-cell fraction (FMF-03-145-1; 0.03162 µM): 0.127
increase in dead-cell fraction (FMF-03-145-1; 0.1 µM): 0.102
increase in dead-cell fraction ([2]; 0.0001 µM): 0.0026
increase in dead-cell fraction ([2]; 0.0003162 µM): 0.0025
increase in dead-cell fraction ([2]; 0.001 µM): 0.0021
increase in dead-cell fraction ([2]; 0.003162 µM): 0.0022
increase in dead-cell fraction ([2]; 0.01 µM): 0.0009
increase in dead-cell fraction ([2]; 0.03162 µM): -0.0017
increase in dead-cell fraction ([2]; 0.1 µM): -0.0015
increase in dead-cell fraction ([2]; 0.3162 µM): -0.0026
increase in dead-cell fraction ([2]; 1 µM): 0.0032
increase in dead-cell fraction (Dasatinib; 0.001 µM): 0.0065
increase in dead-cell fraction (Dasatinib; 0.003162 µM): 0.0017
increase in dead-cell fraction (Dasatinib; 0.01 µM): 0.0035
increase in dead-cell fraction (Dasatinib; 0.03162 µM): -0.0007
increase in dead-cell fraction (Dasatinib; 0.1 µM): -0.003
increase in dead-cell fraction (Dasatinib; 0.3162 µM): 0.0019
increase in dead-cell fraction (Dasatinib; 1 µM): -0.0024
increase in dead-cell fraction (Dasatinib; 3.162 µM): 0.0091
increase in dead-cell fraction (Dasatinib; 10 µM): 0.0365
increase in dead-cell fraction (AZD1775; 0.001 µM): 0.0224
increase in dead-cell fraction (AZD1775; 0.003162 µM): 0.0098
increase in dead-cell fraction (AZD1775; 0.01 µM): 0.0075
increase in dead-cell fraction (AZD1775; 0.03162 µM): 0.029
increase in dead-cell fraction (AZD1775; 0.1 µM): 0.0256
increase in dead-cell fraction (AZD1775; 0.3162 µM): 0.0481
increase in dead-cell fraction (AZD1775; 1 µM): 0.119
increase in dead-cell fraction (AZD1775; 3.162 µM): 0.184
increase in dead-cell fraction (AZD1775; 10 µM): 0.472
increase in dead-cell fraction (THZ-P1-2; 0.01 µM): -0.0013
increase in dead-cell fraction (THZ-P1-2; 0.03162 µM): -0.0105
increase in dead-cell fraction (THZ-P1-2; 0.1 µM): 0.0091
increase in dead-cell fraction (THZ-P1-2; 0.3162 µM): -0.0029
increase in dead-cell fraction (THZ-P1-2; 1 µM): -0.0001
increase in dead-cell fraction (THZ-P1-2; 3.162 µM): -0.0022
increase in dead-cell fraction (THZ-P1-2; 10 µM): 0.569
increase in dead-cell fraction (Buparlisib/NVP-BKM120; 0.001 µM): -0.0006
increase in dead-cell fraction (Buparlisib/NVP-BKM120; 0.003162 µM): 0.0058
increase in dead-cell fraction (Buparlisib/NVP-BKM120; 0.01 µM): 0.0024
increase in dead-cell fraction (Buparlisib/NVP-BKM120; 0.03162 µM): 0.0055
increase in dead-cell fraction (Buparlisib/NVP-BKM120; 0.1 µM): 0.0187
increase in dead-cell fraction (Buparlisib/NVP-BKM120; 0.3162 µM): 0.043
increase in dead-cell fraction (Buparlisib/NVP-BKM120; 1 µM): 0.189
increase in dead-cell fraction (Buparlisib/NVP-BKM120; 3.162 µM): 0.273
increase in dead-cell fraction (Buparlisib/NVP-BKM120; 10 µM): 0.227

From the supplement of paper PMC9663587
